Laboratory results as given in patent US20220296480A1, “TOPICAL COMPOSITIONS” (DSM IP ASSETS B.V., priority 2019, published 2022).

System: A. brasiliensis
Assay: Preservation challenge test of inoculated O/W emulsion (ISO 11930)
Format: cell-based, Aspergillus brasiliensis
Conditions: stored 22.5±2.5° C
Procedure: The evaluation of the preservation of a cosmetic formulation is based on inoculation of the formulation as outlined in table 1 with calibrated inocula (prepared from relevant strains of micro-organisms). Therefore, to each formulation 0.2 ml of calibrated inoculum is added to obtain between 1×10^2 cfu/ml and 1×10^6 cfu/ml or g of A. brasiliensis in the formulation (final concentration), which is mixed thoroughly into the formulation to ensure a homogeneous distribution of the inoculum. Then the respective containers containing the inoculated formulations are stored @22.5±2.5° C. At each specified sampling interval (initial (T0), 7 days (T7) and 28 days ([…])) 1 g of the inoculated formulation is taken and a dilution prepared to perform the enumeration of surviving micro-organisms. Then, for each time and each strain/strain mixture, the average log value is calculated which is represented in tables 2 and 3. (Procedure: see ISO 11930, chapter 5.2.-5.6.3.4. (page 3-13)) [table]

[1] = ERY 0.1 wt.-%, HG & EHG 0.9 wt.-%, time 0 days (T0)
[2] = ERY 0.1 wt.-%, HG & EHG 0.9 wt.-%, time 7 days (T7)
[3] = ERY 0.4 wt.-%, HG & EHG 0.6 wt.-%, time 0 days (T0)
[4] = ERY 0.4 wt.-%, HG & EHG 0.6 wt.-%, time 7 days (T7)

| SMILES | Average log [cfu/ml] [1] | Average log [cfu/ml] [2] | Average log [cfu/ml] [3] | Average log [cfu/ml] [4] | Average log [cfu/ml] (ERY 0.1 wt.-%, HG & EHG 0.9 wt.-%, time 28 days (T28)) | Average log [cfu/ml] (ERY 0.4 wt.-%, HG & EHG 0.6 wt.-%, time 28 days (T28)) |
| --- | --- | --- | --- | --- | --- | --- |
| O=C(CO)[C@H](O)CO (racemic) [ERY, Erythrulose] | 1.8 log [cfu/ml] | 3.5 log [cfu/ml] | 2.0 log [cfu/ml] | 2.9 log [cfu/ml] |  |  |
| CCCCC(CC)COCC(O)CO (stereo not shown) [EHG, Ethylhexyl glycerine] | 4.6 log [cfu/ml] | 4.2 log [cfu/ml] | 4.6 log [cfu/ml] | 4.4 log [cfu/ml] | 4.5 log [cfu/ml] | 4.6 log [cfu/ml] |
